Experimental data reported in US9072759B2 (priority 2008, dated 2015).
Values after ≈ are worked out from the molar mass of the structure shown. Read-outs that look alike come from different tables or passages of the source.

Legend:
[1] = system: L. pneumophila strain ATCC 33153; assay: microbe, parasite or virus in culture; type: cell-based; conditions: Legionella pneumophila
[2] = in vivo
[3] = system: B. anthracis; conditions: approved or proposed for post-exposure anthrax indications; cited from earlier work
[4] = system: L. monocytogenes strain EGD; assay: microbe, parasite or virus in culture; type: cell-based; conditions: Listeria monocytogenes
[5] = in vivo; conditions: monkey
[6] = system: Y. pestis; assay: microbe, parasite or virus in culture; type: cell-based
[7] = system: B. mallei; assay: microbe, parasite or virus in culture; type: cell-based
[8] = in vivo; conditions: rodents and non human primates
[9] = system: B. pseudomallei; assay: microbe, parasite or virus in culture; type: cell-based
[10] = in vivo; conditions: rat
[11] = clinical; conditions: in vivo
[12] = system: F. tularensis; assay: microbe, parasite or virus in culture; type: cell-based
[13] = system: B. anthracis; assay: microbe, parasite or virus in culture; type: cell-based
[14] = read-out: MIC, L. monocytogenes
[15] = ATCC33153, pH 6.5, read-out: MIC, L. pneumophila, pH-adjusted broth
[16] = ATCC33153, pH 7.4, read-out: MIC, L. pneumophila, pH-adjusted broth
[17] = ATCC33153, read-out: MIC, L. pneumophila

## CC[C@H]1OC(=O)[C@H](C)[C@@H](O[C@H]2C[C@@](C)(OC)[C@@H](O)[C@H](C)O2)[C@H](C)[C@@H](O[C@@H]2O[C@H](C)C[C@H](N(C)C)[C@H]2O)[C@](C)(OC)C[C@@H](C)C(=O)[C@H](C)[C@@H](O)[C@]1(C)O [CLR, Clarithromycin]
[1]; ATCC33153
  MIC: 0.007 µg/mL (≈ 0.00936 µM)
[2]
  bioload when the time after the last dose was extended: bioload increases

## CC[C@H]1OC(=O)[C@H](C)C(=O)[C@H](C)[C@@H](O[C@@H]2O[C@H](C)C[C@H](N(C)C)[C@H]2O)[C@](C)(OC/C=C/c2cnc3ccccc3c2)C[C@@H](C)C(=O)[C@H](C)[C@H]2NC(=O)O[C@@]21C [cethromycin]
[3]
  MIC90 against B. anthracis, comparator antibiotics: 0.063 µg/mL (≈ 0.0823 µM)

## CC[C@H]1OC(=O)[C@H](C)[C@@H](O[C@H]2C[C@@](C)(OC)[C@@H](O)[C@H](C)O2)[C@H](C)[C@@H](O[C@@H]2O[C@H](C)C[C@H](N(C)C)[C@H]2O)[C@](C)(O)C[C@@H](C)CN(C)[C@H](C)[C@@H](O)[C@]1(C)O [AZI, Azithromycin]
[4]
  MIC: 1 µg/mL (≈ 1.34 µM)
[4]; [14]
  MIC: 1 µg/mL (≈ 1.34 µM)
[1]; ATCC33153
  MIC: 0.016 µg/mL (≈ 0.0214 µM)
[1]; [15]
  MIC: 0.25 µg/mL (≈ 0.334 µM)
[1]; [16]
  MIC: ~0.01 µg/mL (≈ 0.0134 µM)
[1]; [17]
  MIC: 0.016 µg/mL (≈ 0.0214 µM)

## CC[C@H]1OC(=O)[C@H](C)C(=O)[C@H](C)[C@@H](O[C@@H]2O[C@H](C)C[C@H](N(C)C)[C@H]2O)[C@](C)(OC)C[C@@H](C)C(=O)[C@H](C)[C@H]2N(CCCCn3cnc(-c4cccnc4)c3)C(=O)O[C@]12C [TEL, Telithromycin]
[1]; ATCC33153
  MIC: 0.007 µg/mL (≈ 0.00862 µM)
[2]
  bioload when the time after the last dose was extended: bioload increases

## CC[C@H]1OC(=O)[C@@](C)(F)C(=O)[C@H](C)[C@@H](OC2OC(C)CC(N(C)C)C2O)[C@@](C)(OC)C[C@@H](C)C(=O)[C@H](C)[C@H]2N(CCCCn3cc(-c4cccc(N)c4)nn3)C(=O)O[C@]12C (some centres unmarked) [CEM-101, 11-N-4-(3-aminophenyl)-[1,2,3]triazol-1-yl]-butyl}-5-desosaminyl-3-oxo-2-fluoro-erythronolide A,-11,12-cyclic carbamate]
[5]
  Kp: 54
[6]; Y. pestis, 30 strains
  MIC Range: 0.25 to 2 µg/mL
[6]; Yersinia pestis
  MIC50: 1 µg/mL (≈ 1.18 µM)
  MIC90: 2 µg/mL (≈ 2.37 µM)
[7]; B. mallei, 30 strains
  MIC Range: 0.25 to 2 µg/mL
[7]; Burkholderia mallei
  MIC50: 1 µg/mL (≈ 1.18 µM)
  MIC90: 1 µg/mL (≈ 1.18 µM)
[8]
  Kp: 17 to 100
[9]; B. pseudomallei, 30 strains
  MIC Range: 16 µg/mL (≈ 18.9 µM)
[9]; Burkholderia pseudomallei
  MIC50: 16 µg/mL (≈ 18.9 µM)
  MIC90: 16 µg/mL (≈ 18.9 µM)
[10]
  Kp: 5
[4]
  MIC: 0.004 µg/mL (≈ 0.00473 µM)
[4]; pH 7.4, read-out: MIC, L. monocytogenes (EDG), pH-adjusted broth
  MIC: 0.0039 µg/mL (≈ 0.00462 µM)
[4]; [14]
  MIC: 0.004 µg/mL (≈ 0.00473 µM)
[11]
  AUC: 40 to 28600 ng·h/mL
  Cmax: 22 to 1960 ng/mL
  Tmax: 1.5 to 6 h
  half-life: 2.2 to 7.9 h
[1]; ATCC33153
  MIC: 0.004 µg/mL (≈ 0.00473 µM)
[1]; [15]
  MIC: 0.01 µg/mL (≈ 0.0118 µM)
[1]; [16]
  MIC: 0.005 µg/mL (≈ 0.00592 µM)
[1]; [17]
  MIC: 0.004 µg/mL (≈ 0.00473 µM)
[12]; F. tularensis, 30 strains
  MIC Range: <0.08 to 4 µg/mL
[12]; Francisella tularensis
  MIC50: 0.03 µg/mL (≈ 0.0355 µM)
  MIC90: 2 µg/mL (≈ 2.37 µM)
[13]; B. anthracis, 30 strains
  MIC Range: <0.008 to 0.015 µg/mL
[13]; Bacillus anthracis
  MIC50: < 0.008 µg/mL
  MIC90: < 0.008 µg/mL

## O=C(O)c1cn(C2CC2)c2cc(N3CCNCC3)c(F)cc2c1=O [ciprofloxacin]
[3]
  MIC90 against B. anthracis, comparator antibiotics: 0.031 µg/mL (≈ 0.0936 µM)
